Data from patent US9220718B2, “Sonosensitive liposome, pharmaceutical composition including the same, and method of delivering active agent to subject using the sonosensitive liposome” (Samsung Electronics Co., Ltd., priority 2013, dated 2015).

System: Hela cells
Assay: Cell viability by WST assay (WST-8, Cell Counting Kit-8)
Assay type: cell-based
Conditions: 10 ul of radical DX, 20 ug/ml of distilled water
Method: The same liposomes were exposed to ultrasound for 5 minutes at different amplitudes (i.e., 50%, 75%, and 100% of the maximum amplitude) at a frequency of 20 kHz. 10 ul of the sonicated liposomes (DX concentration of 20 ug/ml) was immediately added to Hela cells as described above, and then, incubated for 30 minutes. As a control group, a group treated with 10 ul of PBS, a group treated with 10 ul of radical DX (20 ug/ml of distilled water), and a group wherein HeLa cells are incubated at a temperature of 42° C. were all included. The cell viability thereof was obtained by counting viable cells using a WST assay [2-(2-methoxy-4-nitrophenyl)-3-(4-nitrophenyl)-5-(2,4-disulfophenyl)-2H-tetrazolium, monosodium salts] (WST-8, Cell Counting Kit-8, Dojindo, Japan).

## COc1cccc2c1C(=O)c1c(O)c3c(c(O)c1C2=O)C[C@@](O)(C(=O)CO)C[C@@H]3O[C@H]1C[C@H](N)[C@H](O)[C@H](C)O1 [radical Dx, Doxorubicin]
  cell viability, compared with the sonicated liposomes (about 15%): similar
